pEC50: −log10 of the molar value. Where two headings read alike, the source gives them in different places.
How the values were obtained:
[1] = target: T1, rat APJ (Rattus norvegicus, UniProt Q9JHG3); test: ERK1/2 activation (ppERK1/2 immunostaining, IN Cell Analyzer) in CHO-B78 cells; format: cell-based; details: 10min at 37°C
T1 construct: expressed in transfected cells; host or cells: CHO cells, stably transfected clonal line CHO-B78
T1 sequence (Q9JHG3 1-377): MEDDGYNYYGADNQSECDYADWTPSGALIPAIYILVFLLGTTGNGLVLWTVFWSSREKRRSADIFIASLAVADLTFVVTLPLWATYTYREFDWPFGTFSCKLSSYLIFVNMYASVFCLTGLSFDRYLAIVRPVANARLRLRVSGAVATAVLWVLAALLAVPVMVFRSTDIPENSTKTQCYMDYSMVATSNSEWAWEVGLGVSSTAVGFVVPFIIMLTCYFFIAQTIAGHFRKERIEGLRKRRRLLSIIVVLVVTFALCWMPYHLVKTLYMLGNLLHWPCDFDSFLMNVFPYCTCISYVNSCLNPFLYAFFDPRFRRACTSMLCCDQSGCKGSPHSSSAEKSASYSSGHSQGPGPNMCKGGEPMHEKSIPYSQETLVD
Procedure: Chinese hamster ovary (CHO) cells were transfected with the rat aplnr cDNA (B78 [23]) as previously described [26]. Stably-transfected clonal cells were obtained by limiting dilution, and expression of aplnr was determined by Northern dot blots using two ^32P-dATP-labelled 48bp oligonucleotide specific for the rat aplnr sequence (B78A and B78B [23]; see ISHH below). The highest aplnr-expressing cell clones were expanded for use, and one line (CHO-B78) was used for branched-chain in situ hybridization histochemistry and ERK signal transduction assays (see below).
The nuclear and cytoplasmic fluorescence intensities in individual cells were quantified (in arbitrary units)—data was normalized to vehicle controls after subtraction of ‘no primary antibody’ backgrounds. In each experiment the data (nuclear + cytoplasmic ppERK measurements) is mean ± SEM, n = 6 (approx 1200 cells imaged from 3 wells of a 96-well plate; experiments repeated twice).
IN Cell Analyser 1000 experiments were performed in triplicate wells, with experiments performed at least 2 times. Statistical analysis was with a one-way ANOVA and post hoc Dunnett’s test with GraphPad Prism software (version 4.0b). p<0.05 was considered as statistically significant.
Cells were treated for 10min at 37°C with the indicated concentration of ligands. […]

[2] = tested on: cardiac contractility in adult rodents and humans; details: in vivo, ref [2],[20],[33],[34],[35]; cited from earlier work
From the text: In zebrafish, apela is expressed primarily in the embryonic heart and appears to be the main APJ ligand in ...

[3] = tested on: GPCR CXCR4 in cultured human umbilical vein endothelial cells; details: apela stimulation or knockdown, ref [41]; cited from earlier work
From the text: (§1) The expression of genes for one or both APJ-ligands with their receptor in the same cell, or cells expressing either ligand gene in the close proximity of APJ-expressing cells, raises the possibility of autocrine and/or paracrine actions for the apelinergic system within the heart and kidney. […] Aplnr and apelin appear to be co-localized in endothelial cell ...

[4] = tested on: a number of tissues and cells; parameters: method as in PMID 23943882, PMID 25936916; details: ref [2],[19]; cited from earlier work
From the text: Many questions remain to be explored. For example, does apela in its ncRNA or peptide form(s) contribute to the pathological dispositions of some cardiovascular and metabolic conditions?

[5] = tested on: APJ; parameters: method as in 3 sources, one per row (each row's own in cited_ref): ref [11],[12] = [11]; PMID 25995451; doi:10.1074/jbc.M115.648238; 11 Deng C , Chen H , Yang N , Feng Y , Hsueh AJW . Apela regulates fluid homeostasis by binding to the APJ receptor to activate Gi signaling . J Biol Chem . 2015; 290 : 18261 – 18268 . doi: 10.1074/j || [12]; PMID 25639753; doi:10.1038/srep08170; 12 Wang Z , Yu D , Wang M , Wang Q , Kouznetsova J , Yang R , et al Elabela-apelin receptor signaling pathway is functional in mammalian systems . Sci Rep . 2015; 5 : 8170 doi: 10.1038/srep08170 2563 ||| ref [2] = [2]; PMID 23943882; doi:10.1530/JOE-13-0227; 2 O’Carroll A-M , Lolait SJ , Harris LE , Pope GR . The apelin receptor APJ: journey from an orphan to a multifaceted regulator of homeostasis . J Endocrinol . 2013; 219 : 13 – 35 . 23943882 10.1530/ ||| ref [11] = [11]; PMID 25995451; doi:10.1074/jbc.M115.648238; 11 Deng C , Chen H , Yang N , Feng Y , Hsueh AJW . Apela regulates fluid homeostasis by binding to the APJ receptor to activate Gi signaling . J Biol Chem . 2015; 290 : 18261 – 18268 . doi: 10.1074/j; details: cited from earlier work
From the text: APJ activation by apelin-13 may involve multiple G proteins, while some actions involving ... || A second endogenous ligand for APJ has recently been discovered. Originally annotated as a long non-coding (nc) RNA (termed Ende) expressed primarily in the definitive endoderm during mouse embryogenesis, the apela (otherwise known as elabela or toddler) gene is also translated. It encodes a predicted 54 (58 in zebrafish) amino acid precursor molecule that is highly conserved across vertebrates and is structurally distinct from the apelin prohormone. The apela precursor can be enzymatically processed into a number of biologically active proteoforms such as ... || APJ was an orphan GPCR [23, 31] until its endogenous ligand apelin was isolated from stomach extracts by ‘reverse pharmacology’ almost 20 years ago [32]. It has recently been proposed that apela, a distinct protein unrelated to apelin, and highly conserved across vertebrates, is a new endogenous ligand for APJ.

[6] = tested on: renal APJ; details: cited from earlier work
From the text: as §1, with “This depends on apela binding heterogeneous nuclear ribonucleoprotein L (hnRNPL), an inhi ... || The” for “The”

[7] = tested on: human embryonic stem cells (ESCs); details: which did not express aplnr, ref [18]; cited from earlier work
From the text: (§2) This depends on apela binding heterogeneous nuclear ribonucleoprotein L (hnRNPL), an inhi ...

[8] = exogenously administered; ref [17]; cited from earlier work
From the text: as §2

[9] = tested on: collecting duct APJ; details: proposed, acting on collecting duct APJ; ref [24]; cited from earlier work
From the text: Apela mRNA transcripts appear to be more prevalent during development. They are predominantly expressed in the heart of embryonic rodents and zebrafish, and are also detected in isolated cells from the adult rat heart, and in adult rat and mouse kidney by RT-PCR. The precise renal location of apela gene expression in the kidney has not been reported. Evidence for renal apelin expression is less convincing—it appears to be sparsely distributed in tissue endothelial cells and perhaps vascular epithelial cells and glomeruli. In the rat and ...

[10] = tested on: microdissected glomeruli; details: microdissected glomeruli in vitro; ref [22]; cited from earlier work
From the text: as §1

Substance: apela-32: rat apela-32 (cyclized, pyroglutamated; Severn Biotech, U.K.) (EKSVNFPRRRKLYRHNCFRRRCISLHSRVPFP; not fully specified; N-terminal pyroglutamate (from Gln1 of the mature peptide))
- pEC50 ([1]; CHO-B78 cells stably transfected with rat aplnr, 0.01-1000nM ligand, serum-starved O/N (0.1% foetal calf serum), whole-cell (nuclear + cytoplasmic) ppERK immunofluorescence, averaged from two separate experiments, triplicate wells, read-out: EC50 for ERK activation): 7.80

Substance: apela: second endogenous ligand for APJ; gene encodes a predicted 54 amino acid precursor molecule
- effect on cardiac contractility [2]: increase cardiac contractility
- effect on CXCR4 expression [3]: no effect
- anti-apoptotic activity [4]: anti-apoptotic activity
- ERK activation in APJ-expressing cells ([5]; in vitro, previous studies confirmed by this paper, ref [11]): stimulates ERK activation in APJ-expressing cells in vitro
- ERK activation (stimulation vs basal) ([1]; CHO-B78 cells, rat APJ, one-way ANOVA with post hoc Dunnett's test vs vehicle (basal)): activates signal transduction pathways (ERK activation) in cells expressing the cloned rat APJ
- effect on diuresis ([6]; exogenously administered, ref [11]): promotes diuresis
- PI3K/Akt pathway activation [7]: activates the PI3K/Akt pathway
- effect on apoptosis [7]: anti-apoptotic
- effect on food intake [8]: anorexigenic

Substance: apelin
- effect on cardiac contractility [2]: increase cardiac contractility
- anti-apoptotic activity [4]: anti-apoptotic activity
- signal transduction pathways activated on binding APJ ([5]; often G protein-dependent, ref [2]): inhibition of adenylate cyclase, stimulation of MAP kinase (ERK) phosphorylation, Akt phosphorylation that could contribute to neuroprotection, and enhancing nitric oxide synthase activity

Substance: apelin-17
- effect on antidiuretic action of arginine vasopressin [9]: counteracts the antidiuretic effect of arginine vasopressin
- effect on haemodynamic function in glomeruli [10]: effects haemodynamic function in microdissected glomeruli in vitro
- effect on diuresis ([6]; intravenous, ref [22]): causes diuresis

From article PMC5560558, “Expression and functional implications of the renal apelinergic system in rodents” (PLoS ONE, 2017)
